Reference: patent publication US8247211B2, “Glycopeptide antibiotics” (American Cyanamid Company, priority 2001, dated 2012)
≈ marks a conversion by molar mass, not a printed value. Numbered stars: 1 amine (or outer) side, 2 acyl side, 3 side chain; on linkers, the order of the positions; unused ones are H or OH. Square brackets hold non-standard residues; d marks the D form. Peptide text beside a SMILES is read from it. ξ: configuration not given here. X1 = N=C1NCC(C(O)C(N[*:1])C(=O)[*:2])N1C1OC(CO)C(O)C(O)C1O; ξEnduracididine(βξ-OH,4'ξ) = N=C1NCC(C(O)C(N)C(=O)O)N1; Tyr(3,5-Br2) = N[CH](Cc1cc(Br)c(O)c(Br)c1)C(=O)O; ξPhe(βξ-Me) = CC(c1ccccc1)C(N)C(=O)O

System: Escherichia coli
Test: In vitro antibacterial evaluation: minimum inhibitory concentration (MIC), broth dilution method
Format: cell-based
Conditions: broth dilution, 18 hours at 35° C.

In the case of `CC(c1ccccc1)C1NC(=O)CNC(=O)C(CO)NC(=O)C(C(O)C2CNC(=N)N2C2OC(CO)C(O)C(O)C2O)NC(=O)C(C(O)C2CNC(=N)N2)NC(=O)C(Cc2cc(Br)c(O)c(Br)c2)NC1=O` (stereo not drawn) [Example 3, Cyclo[glycyl-β-methylphenylalanyl-3,5-dibromotyrosyl-3-(2-iminoimidazolidin-4-yl)seryl-3-(3-hexopyranosyl-2-iminoimidazolidin-4-yl)serylseryl]] (cyclo(G[ξPhe(βξ-Me)][Tyr(3,5-Br2)][ξEnduracididine(βξ-OH,4'ξ)][X1]S); configuration not given here), the “MIC Escherichia coli (GC 4560)” value is reported as 64 µg/mL (≈ 56.7 µM).
